Read-outs that look alike come from different tables or passages of the source.
Key:
Pythium ultimum = Pythium ultimum (Damping off) growth inhibition in potato dextrose broth; format: cell-based; conditions: Globisporangium ultimum, 48 hours, read-out: control of fungal infection, Pythium ultimum
Aedes aegypti = Aedes aegypti (Yellow fever mosquito) larvae test; format: in vivo; conditions: 48 h
[1] = system: Puccinia recondita f.sp. tritici; assay: Puccinia recondita f.sp. tritici (wheat brown rust) leaf disk assay; format: in vivo; conditions: foliar, 216 h, preventive, nine days after inoculation, read-out: control of fungal infection, Puccinia recondita f.sp. tritici
[2] = system: Erysiphe graminis f.sp. tritici; assay: Erysiphe graminis f.sp. tritici (wheat powdery mildew) leaf disk assay; format: in vivo; conditions: Blumeria graminis, foliar, 96 h, preventive, four days after inoculation, read-out: control of fungal infection, Erysiphe graminis fsp. tritici
Heliothis virescens = Heliothis virescens (Tobacco budworm) egg test on artificial diet; conditions: 96 h, read-out: control of Heliothis virescens
Plutella xylostella = Plutella xylostella (Diamond back moth) artificial diet test; conditions: 120 h, read-out: control of Plutella xylostella
Pyricularia oryzae = assay: whole plant or invertebrate; format: in vivo; conditions: foliar, 96 h
Myzus persicae = Myzus persicae (Green peach aphid) sunflower leaf disc test; conditions: foliar, 144 h, read-out: control of Myzus persicae
Plasmopara viticola = Plasmopara viticola (downy mildew of grapevine) leaf disk assay; format: in vivo; conditions: foliar, 168 h, preventive, seven days after inoculation, read-out: control of fungal infection, Plasmopara viticola
Phytophthora infestans = assay: whole plant or invertebrate; format: in vivo; conditions: foliar, 96 h, read-out: control of fungal infection, Phytophthora infestans
Tetranychus urticae = conditions: foliar, 192 h, read-out: control of Tetranychus urticae
[3] = read-out: control of fungal infection, Pyricularia oryzae (at least 80% list)
[4] = read-out: control of fungal infection, Pyricularia oryzae (at least 60% list)

| SMILES | inhibition of growth at 200 ppm (Pythium ultimum) | pest or weed control at 2 ppm (Aedes aegypti) | pest or weed control at 200 ppm [1] | pest or weed control at 200 ppm [2] | pest or weed control at 200 ppm (Heliothis virescens) | pest or weed control at 200 ppm (Plutella xylostella) | pest or weed control at 200 ppm (Pyricularia oryzae; [3]) | pest or weed control at 200 ppm (Myzus persicae) | pest or weed control at 200 ppm (Plasmopara viticola) | pest or weed control at 200 ppm (Phytophthora infestans) | pest or weed control at 200 ppm (Pyricularia oryzae; [4]) | melting point | pest or weed control at 200 ppm (Tetranychus urticae) |
| --- | --- | --- | --- | --- | --- | --- | --- | --- | --- | --- | --- | --- | --- |
| CCc1ncnc(N2C3CCC2CC(=NOCc2csc(C)n2)C3)c1Cl [Example 5.98] | ≥ 60% | ≥ 80% | ≥ 80% | ≥ 80% |  |  |  |  |  |  |  |  |  |
| Cc1nc(CON=C2CC3CCC(C2)N3c2ncnc3sccc23)no1 [Example 5.245] |  | ≥ 80% | ≥ 80% | ≥ 80% | ≥ 80% | ≥ 80% | ≥ 80% | ≥ 80% |  |  |  |  |  |
| Cc1ccc(CON=C2CC3CCC(C2)N3c2ncnc3sccc23)c(C)c1 [Example 5.190] |  | ≥ 80% | ≥ 80% | ≥ 80% |  | ≥ 80% |  | ≥ 80% | ≥ 80% | ≥ 80% |  |  |  |
| CCc1ncnc(N2C3CCC2CC(=NOCc2c(F)ccc(F)c2F)C3)c1Cl [Example 5.82] |  | ≥ 80% | ≥ 80% | ≥ 80% |  | ≥ 80% |  | ≥ 80% |  | ≥ 80% | ≥ 60% |  |  |
| Cc1csc(CC2CC3CCC(C2)N3c2ncnc3sccc23)n1 (centres unmarked) [Example 7.16] | ≥ 60% |  | ≥ 80% |  |  |  |  |  |  |  |  | 132 °C |  |
| Fc1cccc2c(N3[C@@H]4CC[C@H]3CC(Oc3ccc(C(F)(F)F)cn3)C4)ccnc12 (some centres unmarked) [Example 2.201] | ≥ 60% | ≥ 80% | ≥ 80% | ≥ 80% | ≥ 80% | ≥ 80% |  |  |  | ≥ 80% | ≥ 60% |  | ≥ 80% |
| CCc1ncnc(N2C3CCC2CC(=NOCc2ccc(F)cc2Cl)C3)c1Cl [Example 5.76] |  | ≥ 80% | ≥ 80% |  |  | ≥ 80% |  | ≥ 80% |  |  | ≥ 60% |  |  |
| CCc1ncnc(N2C3CCC2CC(=NOCc2cc(OC)nc(N)n2)C3)c1Cl [Example 5.91] | ≥ 60% |  | ≥ 80% | ≥ 80% |  |  |  |  |  | ≥ 80% |  |  |  |
| CCc1ncnc(N2C3CCC2CC(=NOCc2ccccn2)C3)c1Cl [Example 5.41] | ≥ 60% | ≥ 80% | ≥ 80% | ≥ 80% | ≥ 80% |  |  |  |  | ≥ 80% |  |  |  |
| c1ccc(CON=C2CC3CCC(C2)N3c2ncnc3sccc23)cc1 [Example 5.138] | ≥ 60% | ≥ 80% | ≥ 80% | ≥ 80% | ≥ 80% | ≥ 80% |  |  | ≥ 80% | ≥ 80% | ≥ 60% |  | ≥ 80% |
| Fc1cc(F)cc(CON=C2CC3CCC(C2)N3c2ncnc3sccc23)c1 [Example 5.205] | ≥ 60% |  | ≥ 80% | ≥ 80% |  |  | ≥ 80% |  |  | ≥ 80% |  |  |  |
| CCc1ncnc(N2C3CCC2CC(=NOCc2ccc(C(F)(F)F)cc2)C3)c1Cl [Example 5.43] |  |  | ≥ 80% | ≥ 80% |  | ≥ 80% | ≥ 80% | ≥ 80% |  |  |  |  | ≥ 80% |
| CS(=O)(=O)c1ccc(CON=C2CC3CCC(C2)N3c2ncnc3sccc23)cc1 [Example 5.248] | ≥ 60% |  | ≥ 80% | ≥ 80% |  |  |  |  |  | ≥ 80% |  |  | ≥ 80% |
| CC(C)(C)c1ccc(OC2C[C@H]3CC[C@@H](C2)N3c2ncnc3sccc23)cc1 (some centres unmarked) [Example 1.25] |  |  |  |  |  |  |  | ≥ 80% | ≥ 80% | ≥ 80% |  |  | ≥ 80% |
| Fc1cccc(CON=C2CC3CCC(C2)N3c2ncnc3sccc23)c1F [Example 5.219] | ≥ 60% | ≥ 80% | ≥ 80% | ≥ 80% |  | ≥ 80% | ≥ 80% |  |  | ≥ 80% | ≥ 60% |  |  |
| c1ccc(CON=C2CC3CCC(C2)N3c2ncnc3sccc23)nc1 [Example 5.149] | ≥ 60% | ≥ 80% | ≥ 80% | ≥ 80% |  |  | ≥ 80% |  |  |  |  |  |  |

| SMILES | inhibition of growth at 200 ppm (Pythium ultimum) | pest or weed control at 2 ppm (Aedes aegypti) | pest or weed control at 200 ppm [1] | pest or weed control at 200 ppm [2] | pest or weed control at 200 ppm (Heliothis virescens) | pest or weed control at 200 ppm (Plutella xylostella) | pest or weed control at 200 ppm (Pyricularia oryzae; [3]) | pest or weed control at 200 ppm (Myzus persicae) | pest or weed control at 200 ppm (Plasmopara viticola) | pest or weed control at 200 ppm (Phytophthora infestans) | pest or weed control at 200 ppm (Pyricularia oryzae; [4]) | melting point | pest or weed control at 200 ppm (Tetranychus urticae) |
| --- | --- | --- | --- | --- | --- | --- | --- | --- | --- | --- | --- | --- | --- |
| CCc1ncnc(N2C3CCC2CC(=NOCc2ccc(S(C)(=O)=O)cc2)C3)c1Cl [Example 5.106] | ≥ 60% |  | ≥ 80% | ≥ 80% |  |  |  |  |  | ≥ 80% |  |  | ≥ 80% |
| Fc1cccc2c(N3[C@@H]4CC[C@H]3CC(Oc3cc(C(F)(F)F)ccn3)C4)ccnc12 (some centres unmarked) [Example 2.185] | ≥ 60% |  |  | ≥ 80% |  |  |  |  |  | ≥ 80% | ≥ 60% |  |  |
| Clc1ccc(CON=C2CC3CCC(C2)N3c2ncnc3sccc23)c(Cl)c1 [Example 5.152] |  | ≥ 80% | ≥ 80% | ≥ 80% | ≥ 80% | ≥ 80% |  | ≥ 80% |  |  | ≥ 60% |  |  |
| COc1ccc(CON=C2CC3CCC(C2)N3c2ncnc3sccc23)cc1 [Example 5.165] | ≥ 60% |  |  | ≥ 80% |  |  |  |  |  | ≥ 80% |  |  |  |
| Fc1cccc2c(N3[C@@H]4CC[C@H]3CC(Oc3cccc(C(F)(F)F)n3)C4)ccnc12 (some centres unmarked) [Example 2.172] | ≥ 60% |  |  |  |  |  |  |  |  |  |  | 133 °C |  |
| CCc1ncnc(N2C3CCC2CC(=NOCc2cc4c(cc2Cl)OCO4)C3)c1Cl [Example 5.114] |  | ≥ 80% | ≥ 80% | ≥ 80% |  |  |  | ≥ 80% | ≥ 80% |  |  |  |  |
| FC(F)(F)c1cccc(OC2C[C@H]3CC[C@@H](C2)N3c2ccnc3cc(Cl)ccc23)n1 (some centres unmarked) [Example 2.174] | ≥ 60% |  |  |  |  |  |  |  |  |  |  | 177 °C |  |
| Fc1ccc(CON=C2CC3CCC(C2)N3c2ncnc3sccc23)cc1 [Example 5.166] |  | ≥ 80% | ≥ 80% | ≥ 80% |  | ≥ 80% | ≥ 80% | ≥ 80% | ≥ 80% | ≥ 80% | ≥ 60% |  |  |
| FC(F)(F)c1cccc(OC2C[C@H]3CC[C@@H](C2)N3c2ccnc3c(Cl)cccc23)n1 (some centres unmarked) [Example 2.175] | ≥ 60% |  |  |  |  |  |  |  |  | ≥ 80% | ≥ 60% | 116 °C |  |
| CCc1ncnc(N2C3CCC2CC(=NOCc2ccc(C)cc2)C3)c1Cl [Example 5.7] |  | ≥ 80% | ≥ 80% | ≥ 80% |  | ≥ 80% |  | ≥ 80% |  | ≥ 80% |  |  |  |
| CCc1ncnc(N2C3CCC2CC(=NOCc2ccccc2F)C3)c1Cl [Example 5.54] |  | ≥ 80% | ≥ 80% | ≥ 80% |  | ≥ 80% |  | ≥ 80% |  |  |  |  | ≥ 80% |
| Cc1ccc(OC2C[C@H]3CC[C@@H](C2)N3c2ccnc3c2c(C)nn3C)cn1 (some centres unmarked) [Example 2.164] | ≥ 60% |  |  | ≥ 80% |  |  |  |  |  |  |  | 153 °C |  |
| CCc1ncnc(N2C3CCC2CC(=NOCC2CC2)C3)c1Cl [Example 5.3] | ≥ 60% | ≥ 80% | ≥ 80% | ≥ 80% |  |  |  |  |  |  |  |  |  |
| CCc1ncnc(N2[C@@H]3CC[C@H]2CC(Oc2ccc(CCC(C)=O)cc2)C3)c1Cl (some centres unmarked) [Example 1.213] |  |  | ≥ 80% | ≥ 80% |  |  |  | ≥ 80% |  |  |  |  | ≥ 80% |
| CCc1ncnc(N2C3CCC2CC(=NOCc2ccncc2)C3)c1Cl [Example 5.6] | ≥ 60% | ≥ 80% | ≥ 80% |  |  |  |  |  |  | ≥ 80% |  |  | ≥ 80% |

Source: patent US20100331348A1, “TROPANE DERIVATIVES USEFUL AS PESTICIDES” (SYNGENTA CROP PROTECTION, INC., priority 2007, published 2010)
